Experimental findings from patent EP0036572A1, “Substituted alkylthioacylamino acids, processes for their preparation and pharmaceutical compositions” (C.H. BOEHRINGER SOHN, priority 1980, dated 1981) are described below.

In assay [1] the test system is genetischen Hochdruckratte. Particulars: genetische Hochdruckratte; 30 mg/kg p.o.
Assay [2] has as its system durch Bradykinin erzeugte Blutdrucksenkung. Conditions: Ratten; 3,0 µ g/kg Bradykinin i.v.; test substance 1,38juMol/kg i.v.

On to `C[C@H](CSC(C[N+](=O)[O-])c1ccccc1)C(=O)N1CCC[C@H]1C(=O)O` (stereo partly drawn) [Beispiel 1, 1-[3-(1-Phenyl-2-nitro-äthylthio)-2-D-methylpropanoyl]-L-prolin], for which the Blutdrucksenkung in assay [1] is 19%. Besides, in assay [2], the “durch Bradykinin verursachte Blutdrucksenkung verstärkt um” value came out at 142%.
